Assay results as given in paper PMC12006963, “Application of Deuterium in an M1 Positive Allosteric Modulator Back-Up Program: The Discovery of VU6045422” (ACS Chemical Neuroscience, 2025).

Experiments:
[1] = Brain to plasma ratio in rat; format: in vivo; details: male, Sprague-Dawley, brain and plasma, intravenous, 0.2 mg/kg, rat (SD); for Kp at 15 min: brain/plasma; for Kp uu at 15 min: unbound brain/unbound plasma
Procedure: where Qh (hepatic blood flow, mL/min/kg) is 21 (human) or 70 (rat).
LC/MS/MS Bioanalysis of Samples from Plasma Protein Binding and Intrinsic Clearance […]
Samples were analyzed on a Thermo Electron TSQ Quantum Ultra triple quad mass spectrometer (San Jose, CA) via electrospray ionization (ESI) with two Themo Electron Accella pumps (San Jose, CA), and a Leap Technologies CTC PAL autosampler (Carrboro, NC). Analytes were separated by gradient elution on a dual column system with two Thermo Hypersil Gold (2.1 x 30 mm, 1.9 µm) columns (San Jose, CA) thermostated at 40 °C. HPLC mobile phase A was 0.1% formic acid in water and mobile phase B was 0.1% formic acid in acetonitrile. The gradient started […]
for 0.2 min; returned to 10% B in 0.1 min. The total run time was 1.3 min and the HPLC flow rate was 0.8 mL/min. While pump 1 ran the gradient method, pump 2 equilibrated the alternate column isocratically at 10% B. Compound optimization, data collection, and processing was performed using Thermo Electron's QuickQuan software (v2.3) and Xcalibur (v2.0.7 SP1).
In vivo DMPK experimental:
Determination of brain to plasma ratio:
All animal study procedures were approved by the Institutional Animal Care and Use Committee and were conducted in accordance with the National Institutes of Health regulations of animal care covered in Principles of Laboratory Animal Care (National Institutes of Health). All rats were fasted overnight prior to testing.
For determination of the brain over plasma ratio (Kp), compounds were formulated in 8% ethanol, 32% PEG400 and 60% DMSO (v/v/v) and administered as a single 0.2 mg/kg IV dose (1 mL/kg) to male, Sprague Dawley rats (n = 1) via injection into a surgically-implanted jugular vein catheter. At 15 min post dosing, blood sample was collected into chilled, K2EDTA anticoagulant-fortified tube and immediately placed on wet ice. The blood sample was then centrifuged (1700 rcf, 5 minutes, 4 °C) to obtain plasma sample. At the same post-administration time point, whole brain sample was obtained by rapid dissection, rinsed with PBS, and immediately frozen in individual tissue collection box (dry ice). All brain and plasma samples were stored at -80 °C until […]
Sample Analysis: Concentrations in plasma and brain homogenates were quantified by liquid chromatography tandem mass spectrometry (LC-MS/MS). Whole brains were homogenized in 3 mL of 70:30 IPA:water in a mini bead beater for 3 min, and centrifuged at 3,500 g for 5 min. 5 uL of the supernatant was diluted in 15 uL of blank plasma for quantification of the analytes. Plasma samples were centrifuged at 3,500 g for 5 min. A standard curve was generated by diluting the analytes DMSO stocks with blank plasma to obtain a final concentration of 10,000 ng/ml followed by a serial dilution down to 0.5 ng/ml. Quality controls were generated by a serial dilution of the 5,000 ng/ml standard curve solution in blank plasma to obtain 3 concentrations of 500, 50, and 5 ng/ml. 20 uL of brain diluted in plasma, plasma, blank plasma, standard curve and QC samples were loaded in a V-bottom 96-well plate. 120 uL of acetonitrile containing 0.05 uM carbamazepine (internal standard) was added to each well and the plate was centrifuged at 3,500 g for 5 min. 60 uL of the supernatant of each well (protein free) was transferred to a new 96-well plate containing 60 uL of water. The plates were sealed for analysis by LC-MS/MS.
Plasma and brain tissue samples originating from in vivo studies were analyzed by electrospray ionization using an AB Sciex Q-TRAP 5500 (Foster City, CA) that was coupled to a Shimadzu LC-20AD pump (Columbia, MD) and a Leap Technologies CTC PAL auto-sampler (Carrboro, NC). Analytes were separated by gradient elution using a C18 column (3 x 50 mm, 3 mm; Fortis Technologies Ltd, Cheshire, UK) that was thermostated at 40 °C. HPLC mobile phase A was 0.1% formic acid in water (pH unadjusted); mobile phase B was 0.1% formic acid in acetonitrile (pH […]

[2] = Plasma protein binding, equilibrium dialysis (human); format: in vitro ADME; details: pH 7.4, read-out: fu,plasma
Procedure: page 5: Drug Metabolism Methods: In vitro Plasma protein binding and Brain homogenate binding: Determination of fraction unbound (f u) in plasma was conducted in vitro via equilibrium dialysis using HTDialysis (HTD) membrane plates. The top half of the plate was filled with 100 uL of Dubelco’s Phosphate Buffered Saline, pH 7.4 (DPBS). Compounds were diluted into plasma from each species (5 µM final concentration), which was aliquoted in triplicate to the ‘bottom half’ of the prepared HTD plate wells. The HTD plate was sealed and incubated for 6 hours at 37 °C. Following incubation, each well (both top and bottom halves) were transferred (20 µL) to the corresponding wells of a 96- shallow-well (V-bottom) plate. The daughter plates were then matrix-matched (DPBS side wells received equal volume of plasma, and plasma side wells received equal volume of DPBS), and extraction solution (120 µL; acetonitrile containing 50 nM carbamazepine as IS) was added to all wells of both daughter plates to precipitate protein and extract test article. The plates were then sealed and centrifuged (3500 rcf) for 10 minutes at ambient temperature. Supernatant (60 µL) from each well of the daughter plates was then transferred to the corresponding wells of new daughter plates (96-shallow-well, V bottom) containing water (Milli-Q, 60 µL/well), and the plates were sealed in preparation for LC-MS/MS analysis (see LC-MS/MS analysis method below). The unbound fraction (f u) was calculated following the equation below, and mean values for each species were calculated from 3 replicates. […] Fraction unbound for both plasma and brain samples was determined using Equation 4. f = Concbuffer u Concplasma Equation 4 Determination of fraction unbound in plasma. […]

[3] = Predicted hepatic clearance, hepatic microsomes (cyno); format: in vitro ADME

| Compound | Kp at 15 min [1] | Kp uu at 15 min [1] | fraction unbound at 6 h, 5 µM [2] | Predicted CLhep [3] [mL/min/kg] |
| --- | --- | --- | --- | --- |
| [2H]C1([2H])c2ncccc2C(=O)N1Cc1c(F)cc(-c2cccc3nn(C)cc23)cc1F [compound 3] | 0.63 | 0.57 | 0.051 | 27.4 |
| [2H]C1([2H])c2ncccc2C(=O)N1Cc1c(F)cc(-c2cccc3nn(C([2H])([2H])[2H])cc23)cc1F [compound 5] | 1.1 | 1.5 | 0.036 | 27.5 |
| Cn1cc2c(-c3cc(F)c(CN4Cc5ncccc5C4=O)c(F)c3)cccc2n1 [compound 1] | 0.77 | 1.3 | 0.034 | 5.6 |
